Values quoted from earlier work, collected in US20050079222A1, “Production of nanoparticles from methyl vinyl ether and maleic anhydride for the administration of hydrophilic pharmaceuticals, more particularly of puric and pyrimidinic bases” (priority 2001, published 2005).

Tested on: tumors
Conditions: versus 5-fluorouracile

## O=c1[nH]c(=O)n([C@@H]2O[C@H](CO)[C@@H](O)[C@H]2O)cc1F [5-fluorouridine, 2,4-dioxo-5-fluoropyrimidine riboside]
  antitumoral activity, times more potent than 5-fluorouracile and other derivatives: 100 times
